The target in data set [1] is T1, FAAH (Rattus norvegicus, UniProt P97612).
T1 construct: from tissue; host or cells: liver of SHR and WKY rats treated in vivo
T1 sequence (P97612 1-579): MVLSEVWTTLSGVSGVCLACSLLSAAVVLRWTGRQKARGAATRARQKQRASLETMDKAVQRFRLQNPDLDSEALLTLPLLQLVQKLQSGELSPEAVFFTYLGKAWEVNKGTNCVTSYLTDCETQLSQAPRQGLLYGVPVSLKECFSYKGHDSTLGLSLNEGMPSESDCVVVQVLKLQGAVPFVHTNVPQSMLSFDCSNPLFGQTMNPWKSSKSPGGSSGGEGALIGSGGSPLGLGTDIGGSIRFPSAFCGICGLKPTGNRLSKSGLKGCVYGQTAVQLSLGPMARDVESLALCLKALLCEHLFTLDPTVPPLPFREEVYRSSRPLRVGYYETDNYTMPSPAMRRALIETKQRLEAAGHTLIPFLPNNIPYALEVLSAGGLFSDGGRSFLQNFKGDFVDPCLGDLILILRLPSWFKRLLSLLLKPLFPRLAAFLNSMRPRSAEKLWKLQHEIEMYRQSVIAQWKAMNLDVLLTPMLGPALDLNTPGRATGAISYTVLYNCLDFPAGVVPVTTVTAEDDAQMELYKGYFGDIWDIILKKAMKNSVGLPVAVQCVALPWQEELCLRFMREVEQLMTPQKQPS
As to the kind of experiment: FAAH inhibition in vitro, crude rat brain homogenate with [3H]anandamide. In kind it is biochemical. As for the experimental part: This example describes a general method for assaying FAAH inhibition by the disclosed compounds and determining their IC50 values in vitro (Deutsch, D. G. and S. A. Chin, Biochem. Pharmacol. 46:791-796 (1993)). The indicated amount of each compound was preincubated in a buffer consisting of 300 μg of crude rat brain homogenate protein, 500 μg/ml fatty acid-free bovine serum albumin, in phosphate-buffered saline in a final volume of 1.0 ml, for 10 minutes at 37° C. Crude rat brain homogenate was obtained by decapitating female adult Sprague-Dawley rats, dissecting the desired tissue and homogenizing in five volumes of ice-cold TE (10 mM Tris-HCl, 1 mM EDTA, pH 7.6). Substrate ([…] anandamide+0.2 µCi of 221 Ci/mmol [^3H]anandamide ([arachidonyl-5,6,8,9,11,12,14,15-^3H]ethanolamide)) was then added and the samples incubated for 10 minutes. The reaction was quenched by the addition of chloroform:methanol (1:1) and enzyme activity was analyzed by TLC.

Data set [2] concerns the target T1, FAAH. As to the kind of experiment: Hepatic FAAH activity in SHR and WKY after i.p. treatment. In kind it is in vivo. To be noted: AM3506 1 mg/kg, n=3-5.
Data set [3] is described as follows: Non-fasting blood glucose in SHR and WKY. The following applies: AM3506 1 mg/kg i.p., n=6.

For orientation: Ki means a dissociation constant, usually derived from enzyme kinetics or from competition with a known ligand. High values mean weaker binding, low ones tighter binding. `O=S(=O)(F)CCCCCc1ccc(O)cc1` [AM3506] showed an inhibitory constant (Ki) at FAAH [1] of 31 nM. The “reduction of hepatic FAAH activity” value on FAAH [2] (SHR) worked out at 11.1±0.04%; on FAAH [2] (WKY), 6.7±0.2%. In addition, the “non-fasting blood glucose after treatment” value in data set [3] (SHR, from 97.8±5.6) is 97.8 ± 2.9 mg/dL; in data set [3] (WKY, from 114.5±5.3), 108.2 ± 4.5 mg/dL.

The record behind these values is patent US8293724B2, “Therapeutic applications of fatty acid amide hydrolase inhibitors” (The United States of America, as represented by the …, priority 2007, dated 2012).
